Assay results from PMC2131780, “A Tale of Switched Functions: From Cyclooxygenase Inhibition to M-Channel Modulation in New Diphenylamine Derivatives” (PLoS ONE, 2007).
pEC50: −log10 of the molar value.

Legend:
[1] = system: COX enzymes (CT26 mouse colon adenocarcinoma cells); experiment: COX inhibition, PGE2 production in CT26 cells; assay type: cell-based; settings: for IC50: average of two experiments in triplicate, read-out: COX inhibition (IC50, µM) CT26
Excerpt: (§1) In addition, the aromatic rings of the diphenylamine moiety were substituted with different electron donating or withdrawing groups. In a first screen, two parameters were checked: (a) the non-selective inhibition of COX-1/COX-2 enzyme activities, measured by the production of PGE2 in cultured mouse colon adenocarcinoma (CT26) and mouse Lewis lung carcinoma cells (D122) cells; (b) the M-channel activity, measured by the heterologous coexpression of Kv7.2 and Kv7.3 subunits in Chinese hamster ovary (CHO) cells.
(§2) Mouse colon adenocarcinoma CT26 and mouse Lewis lung carcinoma D122 cells were grown in DMEM (D122) or RPMI (CT26) supplemented with 10% fetal calf serum, 4% glutamine, 1% penicillin-streptomycin-nystatin and 3% non essential amino acids (D122) and maintained in a humidified 37°C incubator with 5% CO2. For the COX assays, cells were grown onto 24 multiwell plates. Before the assay, cells were washed with serum-free medium; then tested compounds were added to the medium and incubated for 30 min at 37°C after which 30 µM arachidonic acid was added and incubated for additional 20 min. At the end of the incubations, 10 µM indomethacin was added to stop the reaction and medium was transferred to another 24 multiwell plate for measuring PGE2 production by radioimmunoassay (DuPont-NEN; Boston, MA) according to manufacturer protocol. Protein determination was assayed on scraped cells and was used to normalize the amount of PGE2 production. Assays with purified ovine COX-1 and human recombinant COX-2 were performed using the COX inhibitor screening assay (Cayman chemical company, Ann Arbor, MI), according to manufacturer protocol.

[2] = system: COX enzymes (D122 mouse Lewis lung carcinoma cells); experiment: COX inhibition, PGE2 production in D122 cells; assay type: cell-based; settings: average of two experiments in triplicate
Excerpt: as §1, §2

[3] = target: T1, Kv7.2/3 K+ channels (M-channels) (Homo sapiens, UniProt O43525+O43526); experiment: Whole-cell patch-clamp of recombinant Kv7.2/3 channels in CHO cells; assay type: cell-based; settings: for ΔV50 (mV), left-shift in half-activation potential: Kv7.2/3 in CHO cells; for M-channels (Kv7.2/Kv7.3) effect (opener / blocker / inactive): Kv7.2 and Kv7.3 coexpressed in CHO cells; for pEC50: concentration-dependent left-shift ΔV50, sigmoidal fit, read-out: M-channel opener potency EC50
T1 construct: expressed in transfected cells; host or cells: CHO cells
Description: Chinese hamster ovary (CHO) cells were grown in Dulbecco's modified Eagle's medium (DMEM) supplemented with 2 mM glutamine, 10% fetal calf serum and antibiotics. Briefly, 40,000 cells seeded on poly-D-lysine-coated glass coverslips (13 mm diameter) in a 24-multiwell plate were transfected with pIRES-CD8 (0.5 µg) as a marker for transfection, and with Kv7.2 (0.5 µg) and Kv7.3 (0.5 µg). For electrophysiology, transfected cells were visualized approximately 40 hours following transfection, using anti-CD8 antibody-coated beads. Transfection was performed using Fugene 6 (Roche, Indianapolis IN, USA) according to the manufacturer's protocol.
Voltage-clamp recordings in CHO cells were performed, using the whole-cell configuration of the patch-clamp technique. Signals were amplified using an Axopatch 200B patch-clamp amplifier (Molecular Devices, Sunnyvale, CA), sampled at 2 kHz and filtered at 800 Hz via a 4-pole Bessel low pass filter. […] The patch pipettes were pulled from borosilicate glass (Warner Instrument Corp, USA) with a resistance of 2–5 MΩ. For K^+ current recordings in CHO cells, the intracellular pipette solution contained (in mM): 130 KCl, 1 MgCl2, 5 K2ATP, 5 EGTA, 10 HEPES, adjusted with KOH to pH 7.4 (290 mOsm). The extracellular solution contained (in mM): 140 NaCl, 4 KCl, 1.8 CaCl2, 1.2 MgCl2, 11 glucose, 5.5 HEPES, adjusted with NaOH to pH 7.4 (310 mOsm). Series resistances (3–13 MΩ) were compensated (75–90%) and periodically monitored.
Data analysis was performed using the Clampfit program (pClamp 9.2, Molecular Devices), Microsoft Excel (Microsoft) and Prism 4.0 (GraphPad). Chord conductance (G) was calculated by using the following equation: [drawing 1] where I corresponds to the current amplitude measured at the end of the pulse and Vrev, the calculated reversal potential. G was estimated at various test voltages V and then, normalized to a maximal conductance value, Gmax. Activation curves were fitted by one Boltzmann distribution: [drawing 2] where V50 is the voltage at which the current is half-activated and s is the slope factor. All data were expressed as mean±SEM. Statistically significant differences were assessed by Student's t-test. Analysis of sEPSCs and sIPSCs was done using the Clampfit program (pClamp 9.2, Molecular Devices) and included evaluation of the individual events as well as the average event amplitude and the integral of the event (total charge transfer).

[4] = system: MES-induced tonic hind limb extension; experiment: Maximal electroshock seizure (MES) model; assay type: in vivo, mouse; settings: mice, intraperitoneal, 30 min before electroshock; not shown
Description: This test is generally thought to be a model of generalized tonic-clonic seizure in human.
The anti-convulsant effect was measured by the maximal electroshock seizure model (MES) in ICR mice as previously described. The procedures followed for experimentation and maintenance of the animals were approved by the animal research ethics committee of Tel Aviv University and in accordance with the Guide for the Care and Use of Laboratory Animals (1996, National Academy of Sciences, Washington DC). Briefly, maximal electroshock was induced in adult mice by means of two transcorneal electrodes delivering an alternative current of 50 mA at 60 Hz for 0.2 sec using rodent shocker (Hugo Sachs Electronik, type 221). […] The drugs dissolved in 0.9% saline were administered intraperitoneally 30 min before the electroshock was performed. Animals failing to show tonic hind limb extension were scored as protected and were expressed in percentage.

T1 sequence (O43526 whole entry): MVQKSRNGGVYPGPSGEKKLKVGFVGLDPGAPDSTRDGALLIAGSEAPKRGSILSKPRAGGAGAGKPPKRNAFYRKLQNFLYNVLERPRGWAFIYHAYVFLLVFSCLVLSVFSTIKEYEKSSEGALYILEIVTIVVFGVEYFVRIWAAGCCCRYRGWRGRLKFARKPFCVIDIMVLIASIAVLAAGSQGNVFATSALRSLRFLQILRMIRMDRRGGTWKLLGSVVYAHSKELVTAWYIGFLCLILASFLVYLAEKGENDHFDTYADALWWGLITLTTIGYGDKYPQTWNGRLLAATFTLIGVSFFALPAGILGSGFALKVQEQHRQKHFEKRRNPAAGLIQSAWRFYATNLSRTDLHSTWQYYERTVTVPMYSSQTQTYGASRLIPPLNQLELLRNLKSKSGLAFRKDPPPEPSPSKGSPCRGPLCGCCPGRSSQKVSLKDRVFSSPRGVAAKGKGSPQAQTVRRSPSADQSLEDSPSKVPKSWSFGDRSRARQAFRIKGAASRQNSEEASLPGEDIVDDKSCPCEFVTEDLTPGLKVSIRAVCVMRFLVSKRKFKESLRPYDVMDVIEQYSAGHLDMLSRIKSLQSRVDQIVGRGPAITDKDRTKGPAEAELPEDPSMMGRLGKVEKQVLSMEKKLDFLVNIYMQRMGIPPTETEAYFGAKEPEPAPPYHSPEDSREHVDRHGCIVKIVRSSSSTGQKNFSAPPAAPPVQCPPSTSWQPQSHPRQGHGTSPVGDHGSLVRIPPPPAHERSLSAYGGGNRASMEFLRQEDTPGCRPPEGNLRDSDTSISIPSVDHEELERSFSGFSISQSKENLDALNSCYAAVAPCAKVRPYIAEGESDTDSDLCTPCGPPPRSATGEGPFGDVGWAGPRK
T1 sequence (O43525 whole entry): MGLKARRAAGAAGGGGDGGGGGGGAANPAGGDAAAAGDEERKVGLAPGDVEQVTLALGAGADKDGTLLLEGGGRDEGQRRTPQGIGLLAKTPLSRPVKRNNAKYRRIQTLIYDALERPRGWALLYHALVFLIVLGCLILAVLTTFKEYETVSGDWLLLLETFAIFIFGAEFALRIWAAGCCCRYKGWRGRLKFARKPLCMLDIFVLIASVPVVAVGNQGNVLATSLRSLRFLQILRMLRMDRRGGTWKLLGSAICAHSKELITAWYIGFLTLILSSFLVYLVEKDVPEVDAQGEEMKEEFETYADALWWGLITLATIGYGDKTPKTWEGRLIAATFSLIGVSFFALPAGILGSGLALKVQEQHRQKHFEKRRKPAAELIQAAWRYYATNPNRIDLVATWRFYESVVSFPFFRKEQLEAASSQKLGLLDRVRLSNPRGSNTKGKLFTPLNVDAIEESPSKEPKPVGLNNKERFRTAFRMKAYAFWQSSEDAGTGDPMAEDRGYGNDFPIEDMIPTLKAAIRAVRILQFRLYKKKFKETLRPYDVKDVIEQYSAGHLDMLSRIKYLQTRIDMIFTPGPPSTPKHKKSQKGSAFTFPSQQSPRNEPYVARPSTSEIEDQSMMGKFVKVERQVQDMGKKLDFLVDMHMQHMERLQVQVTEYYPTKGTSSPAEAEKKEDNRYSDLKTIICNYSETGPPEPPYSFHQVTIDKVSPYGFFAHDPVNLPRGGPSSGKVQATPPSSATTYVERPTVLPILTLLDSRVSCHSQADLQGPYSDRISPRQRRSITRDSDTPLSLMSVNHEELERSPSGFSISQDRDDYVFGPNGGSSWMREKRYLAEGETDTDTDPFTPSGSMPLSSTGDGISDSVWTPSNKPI

Compound	M-channels (Kv7.2/Kv7.3) effect (opener / blocker / inactive) [3]	pEC50 [3]	also measured
O=C(Cc1cc([N+](=O)[O-])ccc1Nc1c(Cl)cccc1Cl)NCCO [Compound 7]	opener	4.77	effect on COX activity (Figure 1) [1]: completely unaffected; IC50 [1]: > 50 µM; IC50 [2]: > 50 µM; ΔV50 (mV), left-shift in half-activation potential [3]: −12.2 mV
O=C1NC(=O)C(c2ccccc2)(c2ccccc2)N1 [phenytoin]			dose that fully prevented hind limb extension [4]: 20 mg/kg
CC(C(=O)O)c1cccc(Oc2ccccc2)c1 (stereo not shown) [fenoprofen, reference compound]	do not activate		
CC(C(=O)O)c1ccc(-c2ccccc2)c(F)c1 (stereo not shown) [flurbiprofen, reference compound]	do not activate		
Cc1cccc(Nc2ccccc2C(=O)O)c1C [mefenamate, reference compound]	openers		
O=C(O)c1ccccc1Nc1cccc(C(F)(F)F)c1 [flufenamate, reference compound]	openers		
O=C(O)Cc1ccccc1Nc1c(Cl)cccc1Cl [Diclofenac, reference compound]	opener	5.59	IC50 [1]: 0.003 µM; IC50 [2]: 0.1 µM; M-channels (Kv7.2/Kv7.3) effect (opener / blocker / inactive) ([3]; listed as diclofenac): openers
COc1ccc2cc([C@H](C)C(=O)O)ccc2c1 [naproxen, reference compound]	do not activate		
Cc1ccc(Cl)c(Nc2ccccc2C(=O)O)c1Cl [Meclofenamic acid, reference compound]	opener	4.60	ΔV50 (mV), left-shift in half-activation potential [3]: −22.7 mV; M-channels (Kv7.2/Kv7.3) effect (opener / blocker / inactive) ([3]; listed as meclofenamate): openers
CCCC(CCC)C(=O)O [sodium valproate]			dose that fully prevented hind limb extension [4]: 500 mg/kg
